In ChEMBL document CHEMBL1201862, “PubChem BioAssay data set” (2004):
The source made the active and inactive calls.

Experiments:
Caspase-6 = target: T1, Caspase-6 (Homo sapiens, UniProt P55212); test: human caspase-6 inhibitors, dose response, biochemical, VEID-R110 fluorescence, cherry-pick (AID 720632)
T1 sequence (P55212 whole entry): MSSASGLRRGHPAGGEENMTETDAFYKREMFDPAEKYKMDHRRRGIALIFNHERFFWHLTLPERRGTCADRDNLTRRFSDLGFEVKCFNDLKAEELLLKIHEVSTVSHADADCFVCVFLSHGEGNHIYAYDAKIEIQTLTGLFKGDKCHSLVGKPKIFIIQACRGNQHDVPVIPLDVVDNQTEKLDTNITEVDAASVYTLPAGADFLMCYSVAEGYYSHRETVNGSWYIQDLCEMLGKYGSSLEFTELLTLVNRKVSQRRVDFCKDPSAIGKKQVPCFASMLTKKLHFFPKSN

[1] = target: T2, Replicative DNA helicase DnaB (Mycobacterium tuberculosis, UniProt P9WMR3); test: DnaB intein splicing inhibitors, dose response, biochemical, cell-free fluorescence (AID 449749); assay type: functional
T2 sequence (P9WMR3 whole entry): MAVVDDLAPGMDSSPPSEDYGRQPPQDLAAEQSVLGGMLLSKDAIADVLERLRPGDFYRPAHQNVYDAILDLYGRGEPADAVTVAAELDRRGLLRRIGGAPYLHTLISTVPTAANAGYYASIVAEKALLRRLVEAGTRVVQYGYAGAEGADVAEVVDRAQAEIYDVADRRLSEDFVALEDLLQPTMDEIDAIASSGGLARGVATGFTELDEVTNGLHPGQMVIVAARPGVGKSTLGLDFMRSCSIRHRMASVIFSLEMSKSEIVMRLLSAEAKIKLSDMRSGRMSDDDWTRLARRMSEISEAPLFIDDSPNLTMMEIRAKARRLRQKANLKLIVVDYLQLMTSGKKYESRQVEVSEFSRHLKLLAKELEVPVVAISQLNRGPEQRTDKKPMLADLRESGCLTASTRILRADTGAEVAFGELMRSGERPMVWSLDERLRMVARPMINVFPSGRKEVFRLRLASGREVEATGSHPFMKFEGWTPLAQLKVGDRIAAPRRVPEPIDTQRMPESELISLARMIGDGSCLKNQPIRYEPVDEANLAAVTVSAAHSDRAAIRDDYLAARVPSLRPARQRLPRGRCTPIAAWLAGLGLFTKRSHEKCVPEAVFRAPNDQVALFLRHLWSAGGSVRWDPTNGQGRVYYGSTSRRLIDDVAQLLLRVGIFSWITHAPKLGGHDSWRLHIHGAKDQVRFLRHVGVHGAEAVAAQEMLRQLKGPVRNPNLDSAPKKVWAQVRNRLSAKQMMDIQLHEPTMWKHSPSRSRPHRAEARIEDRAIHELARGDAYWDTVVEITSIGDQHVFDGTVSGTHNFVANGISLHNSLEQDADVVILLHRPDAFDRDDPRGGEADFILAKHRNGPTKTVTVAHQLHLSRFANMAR

[2] = target: T3, Sentrin-specific protease 8 (Homo sapiens, UniProt Q96LD8); assay type: functional
T3 sequence (Q96LD8 whole entry): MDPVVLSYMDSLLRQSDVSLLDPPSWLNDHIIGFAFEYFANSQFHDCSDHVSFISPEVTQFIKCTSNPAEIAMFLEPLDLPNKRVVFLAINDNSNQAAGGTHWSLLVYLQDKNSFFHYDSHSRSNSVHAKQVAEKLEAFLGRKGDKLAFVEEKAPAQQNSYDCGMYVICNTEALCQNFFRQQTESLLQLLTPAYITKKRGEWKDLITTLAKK

Jurkat = test: antigen receptor-induced NF-kB inhibitors, dose response, Jurkat, luciferase reporter, luminescence, B- and T-cell (AID 489004); assay type: functional, cell-based; settings: Homo sapiens;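 further: NF-kB luciferase reporter Jurkat cells stimulated with PMA plus ionomycin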
[3] = target: T3, Sentrin-specific protease 8; assay type: functional; remark: listed apart in the source
INS1 = test: beta cell apoptosis inhibitors, cytokine rescue, dose response, luminescence, retest (AID 449756); assay type: functional, cell-based; settings: Rattus norvegicus;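 further: cell death triggered by IL-1 beta plus TNF-alpha plus IFN-gamma mixture; protective hits raise ATP signal compared with cytokine alone wells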
[4] = microbe, parasite or virus in culture; assay type: functional; settings: Mycobacterium tuberculosis
Caspase-9 = target: T4, Caspase-9 (Homo sapiens, UniProt P55211); test: caspase-9 enzyme inhibition, dose response, selectivity assay for caspase-6 inhibitor project, biochemical, fluorescence, plate reader, cherry-picked samples (AID 743293)
T4 sequence (P55211 whole entry): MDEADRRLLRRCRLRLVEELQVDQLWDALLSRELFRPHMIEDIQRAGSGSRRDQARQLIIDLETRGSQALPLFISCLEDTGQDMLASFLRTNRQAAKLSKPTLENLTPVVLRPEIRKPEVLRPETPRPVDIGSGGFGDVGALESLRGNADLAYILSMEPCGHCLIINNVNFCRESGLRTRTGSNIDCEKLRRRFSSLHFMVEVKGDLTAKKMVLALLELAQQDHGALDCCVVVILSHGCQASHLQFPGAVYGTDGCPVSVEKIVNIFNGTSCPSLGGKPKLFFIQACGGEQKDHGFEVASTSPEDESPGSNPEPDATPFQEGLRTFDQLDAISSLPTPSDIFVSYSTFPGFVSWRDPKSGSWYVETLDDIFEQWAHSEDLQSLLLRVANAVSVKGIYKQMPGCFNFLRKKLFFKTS

Caspase-8 = Caspase-8 (Homo sapiens, UniProt Q14790); test: caspase-8 inhibition counter-screen, dose response, selectivity assay for caspase-6 inhibitor project, biochemical, Z-IETD-R110 fluorescence, cherry-picked samples (AID 743294)
Chain of Caspase-8 (Q14790 217-374 limits assumed): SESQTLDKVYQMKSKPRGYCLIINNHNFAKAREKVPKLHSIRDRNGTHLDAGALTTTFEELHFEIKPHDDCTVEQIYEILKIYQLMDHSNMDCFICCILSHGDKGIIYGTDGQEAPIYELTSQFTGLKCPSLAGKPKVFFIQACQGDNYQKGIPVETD
Chain of Caspase-8 (Q14790 385-479 limits assumed): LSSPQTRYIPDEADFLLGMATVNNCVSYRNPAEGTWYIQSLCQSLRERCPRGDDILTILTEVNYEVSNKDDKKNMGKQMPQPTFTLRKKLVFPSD

Caspase-7 = target: T5, Caspase-7 (Homo sapiens, UniProt P55210); test: human caspase-7 inhibitors, dose response, selectivity assay for caspase-6 inhibitor project, biochemical, DEVD-R110 fluorescence, cherry-pick (AID 743295)
T5 sequence (P55210 whole entry): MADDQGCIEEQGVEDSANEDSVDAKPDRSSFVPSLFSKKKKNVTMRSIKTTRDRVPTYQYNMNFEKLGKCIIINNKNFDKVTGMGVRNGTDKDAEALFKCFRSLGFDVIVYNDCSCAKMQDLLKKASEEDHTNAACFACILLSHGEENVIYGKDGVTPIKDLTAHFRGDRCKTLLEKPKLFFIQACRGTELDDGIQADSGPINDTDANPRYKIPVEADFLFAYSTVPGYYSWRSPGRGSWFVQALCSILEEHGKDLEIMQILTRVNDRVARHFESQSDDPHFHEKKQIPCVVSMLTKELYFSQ

Protein RecA = target: T6, Protein RecA (Mycobacterium tuberculosis, UniProt P9WHJ3); test: Fluorescence Cell-Free Homogeneous Dose Retest to Identify Inhibitors of RecA-Intein Splicing Activity. [Related pubchem assays (depositor defined):AID2097, AID2223, AID489010, AID492950]; assay type: functional
T6 sequence (P9WHJ3 whole entry): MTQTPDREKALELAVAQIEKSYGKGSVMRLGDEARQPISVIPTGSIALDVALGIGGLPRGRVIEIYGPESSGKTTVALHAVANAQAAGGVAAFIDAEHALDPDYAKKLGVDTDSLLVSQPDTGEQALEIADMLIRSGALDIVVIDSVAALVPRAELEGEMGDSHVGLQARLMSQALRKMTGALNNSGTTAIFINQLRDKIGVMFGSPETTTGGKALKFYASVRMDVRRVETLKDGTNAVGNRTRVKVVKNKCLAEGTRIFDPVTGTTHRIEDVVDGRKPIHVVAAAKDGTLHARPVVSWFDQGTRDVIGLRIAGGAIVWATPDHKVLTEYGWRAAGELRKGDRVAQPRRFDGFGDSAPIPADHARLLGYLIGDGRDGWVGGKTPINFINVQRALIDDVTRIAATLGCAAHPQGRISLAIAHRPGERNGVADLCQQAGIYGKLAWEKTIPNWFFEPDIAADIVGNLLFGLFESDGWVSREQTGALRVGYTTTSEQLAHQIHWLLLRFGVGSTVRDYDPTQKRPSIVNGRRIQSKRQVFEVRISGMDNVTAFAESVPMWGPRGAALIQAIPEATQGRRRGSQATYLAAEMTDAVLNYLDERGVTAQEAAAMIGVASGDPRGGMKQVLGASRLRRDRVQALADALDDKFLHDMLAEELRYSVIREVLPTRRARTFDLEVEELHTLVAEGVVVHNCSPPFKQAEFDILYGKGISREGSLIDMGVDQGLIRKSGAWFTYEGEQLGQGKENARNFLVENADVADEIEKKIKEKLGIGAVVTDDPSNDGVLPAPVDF

[5] = cytotoxicity in HEK-293T NF-kB-Luc cells, dose response, cytotoxicity control for B/T-cell NF-kB inhibitor project, cell-based, uHTS hits (AID 489019); assay type: functional;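 further: IC50 reflects cytotoxicity as loss of cell viability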
[6] = target: DNA repair protein RAD52 homolog (Homo sapiens, UniProt P43351); assay type: functional, biochemical
Chain of DNA repair protein RAD52 homolog (P43351 whole entry): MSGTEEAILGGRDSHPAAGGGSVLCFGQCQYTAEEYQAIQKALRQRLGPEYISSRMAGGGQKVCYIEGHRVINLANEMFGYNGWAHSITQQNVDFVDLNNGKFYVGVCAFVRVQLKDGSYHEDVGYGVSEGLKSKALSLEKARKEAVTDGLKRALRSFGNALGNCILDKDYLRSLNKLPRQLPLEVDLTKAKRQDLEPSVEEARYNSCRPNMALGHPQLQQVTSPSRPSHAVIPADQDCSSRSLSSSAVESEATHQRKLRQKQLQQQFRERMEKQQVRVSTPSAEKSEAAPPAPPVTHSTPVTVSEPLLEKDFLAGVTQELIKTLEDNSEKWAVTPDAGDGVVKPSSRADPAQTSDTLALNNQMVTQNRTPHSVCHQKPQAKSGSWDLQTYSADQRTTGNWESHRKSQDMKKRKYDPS

Mu-type opioid receptor = Mu-type opioid receptor (Homo sapiens, UniProt P35372); test: Counterscreen for agonists of heterodimerization of the mu 1 (OPRM1) and delta 1 (OPRD1) opioid receptors: Luminescence-based cell-based high throughput dose response assay to identify agonists of OPRM1 homodimerization.; assay type: functional;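 further: U2OS cells expressing OPRM1 and beta-arrestin as split beta-galactosidase partners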
Chain of Mu-type opioid receptor (P35372 whole entry): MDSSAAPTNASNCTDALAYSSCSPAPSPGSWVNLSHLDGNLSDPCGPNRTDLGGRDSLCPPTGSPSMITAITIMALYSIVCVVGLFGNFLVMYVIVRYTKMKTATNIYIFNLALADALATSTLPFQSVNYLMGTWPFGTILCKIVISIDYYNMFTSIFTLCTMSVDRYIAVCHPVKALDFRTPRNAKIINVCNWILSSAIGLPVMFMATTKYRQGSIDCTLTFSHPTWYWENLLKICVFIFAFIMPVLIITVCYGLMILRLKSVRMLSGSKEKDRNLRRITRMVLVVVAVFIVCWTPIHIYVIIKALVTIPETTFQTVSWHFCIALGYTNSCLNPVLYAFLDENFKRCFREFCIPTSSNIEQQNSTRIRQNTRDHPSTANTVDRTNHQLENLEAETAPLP

[7] = target: 5-hydroxytryptamine receptor 5A (Homo sapiens, UniProt P47898); test: Counterscreen for agonists of OPRM1-OPRD1 heterodimerization: luminescence-based cell-based high throughput dose response assay to identify agonists of 5-hydroxytryptamine (serotonin) 5A receptor (HTR5A). [Related pubchem assays (depositor defined):AID504326, AID504355, AID504692, AID504904, AID504905]; assay type: functional
Chain of 5-hydroxytryptamine receptor 5A (P47898 whole entry): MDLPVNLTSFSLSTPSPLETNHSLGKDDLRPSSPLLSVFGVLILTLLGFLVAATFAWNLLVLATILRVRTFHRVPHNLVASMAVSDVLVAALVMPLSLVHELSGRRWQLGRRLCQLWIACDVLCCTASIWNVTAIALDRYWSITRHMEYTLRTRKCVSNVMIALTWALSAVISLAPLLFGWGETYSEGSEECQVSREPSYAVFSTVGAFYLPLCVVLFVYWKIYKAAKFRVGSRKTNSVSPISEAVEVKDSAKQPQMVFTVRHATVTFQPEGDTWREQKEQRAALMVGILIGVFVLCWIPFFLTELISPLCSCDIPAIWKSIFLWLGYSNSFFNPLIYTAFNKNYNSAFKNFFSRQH

[8] = target: Delta-type opioid receptor (Homo sapiens, UniProt P41143); test: Counterscreen for agonists of heterodimerization of the mu 1 (OPRM1) and delta 1 (OPRD1) opioid receptors: Luminescence-based cell-based high throughput dose response assay to identify agonists of OPRD1 homodimerization. [Related pubchem assays (depositor defined):AID504326, AID504355, AID504692, AID504904, AID504905]; assay type: functional
Chain of Delta-type opioid receptor (P41143 whole entry): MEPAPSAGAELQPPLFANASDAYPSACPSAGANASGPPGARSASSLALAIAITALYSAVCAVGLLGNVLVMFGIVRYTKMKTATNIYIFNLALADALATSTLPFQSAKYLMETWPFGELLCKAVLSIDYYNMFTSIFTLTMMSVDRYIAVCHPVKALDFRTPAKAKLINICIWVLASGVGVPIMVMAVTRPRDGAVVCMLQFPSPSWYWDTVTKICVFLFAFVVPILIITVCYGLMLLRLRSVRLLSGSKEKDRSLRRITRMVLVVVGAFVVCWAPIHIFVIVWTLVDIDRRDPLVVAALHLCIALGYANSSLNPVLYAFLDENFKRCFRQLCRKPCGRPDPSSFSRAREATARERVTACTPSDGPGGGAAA

Vero = test: host cell cytotoxicity of antiviral hits, dose response, cytotoxicity control for West Nile virus antiviral project, secondary assay (AID 1650); assay type: functional; settings: Chlorocebus sabaeus
[9] = target: DNA damage-inducible transcript 3 protein (Mus musculus, UniProt P35639); assay type: functional, Cricetulus griseus
Chain of DNA damage-inducible transcript 3 protein (P35639 whole entry): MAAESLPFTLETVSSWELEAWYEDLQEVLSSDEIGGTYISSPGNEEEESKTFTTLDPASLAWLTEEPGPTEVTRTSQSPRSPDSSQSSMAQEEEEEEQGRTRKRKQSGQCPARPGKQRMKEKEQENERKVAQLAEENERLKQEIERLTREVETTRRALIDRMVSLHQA

[10] = HEK293T cytotoxicity, dose response, cytotoxicity control for miR-122 modulator project, cell-based, inhibitor set, cherry-pick, set 2 (AID 720697); assay type: functional
X-box-binding protein 1 = X-box-binding protein 1 (Homo sapiens, UniProt P17861); assay type: functional, Cricetulus griseus;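 further: confirmatory dose-response counter-screen serving a CHOP assay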
Chain of X-box-binding protein 1 (P17861 whole entry): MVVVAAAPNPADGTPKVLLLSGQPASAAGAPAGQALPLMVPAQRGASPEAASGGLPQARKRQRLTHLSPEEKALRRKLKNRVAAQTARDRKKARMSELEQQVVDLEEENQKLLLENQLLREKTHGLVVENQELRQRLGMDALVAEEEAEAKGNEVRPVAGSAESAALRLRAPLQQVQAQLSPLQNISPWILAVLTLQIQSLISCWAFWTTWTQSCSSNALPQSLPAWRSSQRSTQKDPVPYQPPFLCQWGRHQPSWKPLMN

[11] = HEK293T cytotoxicity, dose response, cytotoxicity control for miR-122 modulator project, cell-based, activator set, cherry-pick (AID 720690); assay type: functional;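 further: HEK293T human cells scored for general mammalian cytotoxicity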
Phospholipase A2 = Phospholipase A2 (Homo sapiens, UniProt P04054); assay type: functional;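 further: confirmatory dose-response counterscreen on phospholipase A2, testing hits that came from an ultra-high-throughput screen for ATG4B inhibitors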
Chain of Phospholipase A2 (P04054 whole entry): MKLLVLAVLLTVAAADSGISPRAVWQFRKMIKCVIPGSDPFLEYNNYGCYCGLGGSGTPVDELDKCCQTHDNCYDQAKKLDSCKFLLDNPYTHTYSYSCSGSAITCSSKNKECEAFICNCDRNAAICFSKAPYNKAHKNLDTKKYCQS

Cysteine protease ATG4B = target: T7, Cysteine protease ATG4B (Homo sapiens, UniProt Q9Y4P1); assay type: functional;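 further: Fluorescence-based dose-response confirmation assay measuring inhibition of ATG4B activity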
T7 sequence (Q9Y4P1 whole entry): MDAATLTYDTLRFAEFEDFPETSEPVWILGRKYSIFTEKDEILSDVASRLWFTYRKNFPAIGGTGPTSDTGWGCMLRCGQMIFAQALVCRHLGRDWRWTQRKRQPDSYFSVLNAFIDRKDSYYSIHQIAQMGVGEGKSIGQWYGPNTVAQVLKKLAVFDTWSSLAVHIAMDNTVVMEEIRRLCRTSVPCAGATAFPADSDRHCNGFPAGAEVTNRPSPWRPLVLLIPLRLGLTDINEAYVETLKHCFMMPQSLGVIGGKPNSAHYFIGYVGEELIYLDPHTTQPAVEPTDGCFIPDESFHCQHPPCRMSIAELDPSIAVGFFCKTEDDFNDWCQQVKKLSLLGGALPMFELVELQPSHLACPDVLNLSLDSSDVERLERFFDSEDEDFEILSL

[12] = inhibitors of intracellular T. cruzi replication, confirmation, NIH3T3 host cells, beta-gal luminescence (AID 2044); assay type: functional, cell-based;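 further: intracellular parasites grown in NIH/3T3 mouse fibroblasts as host cells; luminescent beta-galactosidase reporter signal from transgenic T. cruzi replicating inside host cells; inhibitors lower the luminescence signal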
[13] = miR-122 activators in hepatoma reporter cells, dose response, cell-based, Huh7 psiCHECK-miR122, Renilla luciferase, cherry-picked (AID 651956); assay type: functional;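 further: huh7 hepatoma cells stably carrying a psiCHECK-2 miR-122 sensor plasmid; renilla luciferase signal reporting endogenous miR-122 activity after 48 h compound exposure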
[14] = cytotoxicity toward NIH3T3 fibroblasts, dose response, counter-screen, cell-based, ATP luminescence, mouse fibroblasts (AID 2010); assay type: functional;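 further: cells exposed to compound for about 90 hours before reading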
Escherichia coli = test: microbe, parasite or virus in culture
A-375 [15] = test: A375 melanoma cell viability reduction, dose response, counter-screen for MITF modulator project, cherry-pick samples, set 2 (AID 540335); assay type: functional, cell-based; settings: Homo sapiens
[16] = target: Mitogen-activated protein kinase 10 (Homo sapiens, UniProt P53779); test: Dose response biochemical screening assay for inhibitors of c-Jun N-Terminal Kinase 3 (JNK3). [Related pubchem assays: 746 ]
Chain of Mitogen-activated protein kinase 10 (P53779 whole entry): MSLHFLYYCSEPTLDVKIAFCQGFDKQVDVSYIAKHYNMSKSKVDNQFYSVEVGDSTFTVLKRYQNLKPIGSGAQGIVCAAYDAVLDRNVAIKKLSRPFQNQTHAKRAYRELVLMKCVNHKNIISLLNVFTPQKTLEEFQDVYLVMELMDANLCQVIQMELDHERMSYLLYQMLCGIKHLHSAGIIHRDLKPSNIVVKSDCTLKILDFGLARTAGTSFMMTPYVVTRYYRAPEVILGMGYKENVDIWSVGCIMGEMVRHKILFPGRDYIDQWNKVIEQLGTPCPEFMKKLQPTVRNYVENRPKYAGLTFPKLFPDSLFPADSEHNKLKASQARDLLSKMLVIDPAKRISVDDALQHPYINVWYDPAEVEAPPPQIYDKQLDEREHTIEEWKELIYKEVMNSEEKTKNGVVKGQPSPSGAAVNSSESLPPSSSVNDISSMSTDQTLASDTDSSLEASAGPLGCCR

A-375 [17] = test: MITF: Counter assay: A375 proliferation Measured in Cell-Based System Using Plate Reader - 2084-03_Inhibitor_Dose_DryPowder_Activity. [Related pubchem assays (depositor defined):AID488944]; assay type: functional; settings: Homo sapiens

## COc1cc(NC(C)CCCN)c2ncccc2c1 (centres undefined) [PRIMAQUINE PHOSPHATE]
Caspase-6
  AC50: 1.9 µM (active)
[1]
  AC50: 9.98 µM (active)
[2]
  IC50: 0.987 µM (active)
Jurkat
  IC50: 38 µM (inactive)
[3]
  IC50: 0.935 µM (active)
INS1
  AC50: 3.83 µM (active)
[4]
  CC50: > 40 µM (active)
Caspase-9
  AC50: > 70 µM (inactive)
Caspase-8
  AC50: 57.9 µM (active)
Caspase-7
  AC50: 4.07 µM (active)
Protein RecA
  EC50: 1.17 µM (active)
[5]
  IC50: > 80 µM (inactive)
[6]
  AC50: 5.55 µM (active)

## CCOC(=O)C1(CC2CCCCO2)CCN(Cc2ccc(OC)cc2F)CC1 (centres undefined)
Mu-type opioid receptor
  EC50: > 92.5 µM (inactive)
[7]
  EC50: > 92.5 µM (inactive)
[8]
  EC50: > 92.5 µM (inactive)

## Clc1ccc2c(N/N=C/c3ccccc3Br)ccnc2c1
Vero
  CC50: 7.23 µM (active)
[9]
  Absolute IC50 (CHOP): 10 µM
[10]
  AC50: 7.49 µM (active)
X-box-binding protein 1
  Absolute IC50 (XBP1): 10 µM
[11]
  AC50: 16 µM (active)
Mu-type opioid receptor
  EC50: > 92.5 µM (inactive)
Phospholipase A2
  IC50: 1.75 µM (active)
Cysteine protease ATG4B
  IC50: 3.17 µM (active)
[12]
  EC50: 1.02 µM (active)
[7]
  EC50: > 92.5 µM (inactive)
[13]
  AC50: 39.6 µM (active)
[8]
  EC50: > 92.5 µM (inactive)
[14]
  EC50: > 60 µM (not active)

## Cc1csc(NC(=O)c2c(-c3c(Cl)cccc3Cl)noc2C)n1
Escherichia coli
  AC50: 32.8 µM (active)

## Cc1ccc2nc(Cc3ccc(N)cc3)oc2c1
A-375 [15]
  AC50: > 35 µM (active)
[16]
  IC50: 49.9 µM (not active)
A-375 [17]
  AC50: > 35 µM (active)

## O=C(CN1CCCCC1)Nc1cc(Cl)ccc1Cl
Escherichia coli
  AC50: 144 µM (active)
